Reference: patent US20240366540A1, “MITOFUSIN INHIBITORS AND USES THEREOF” (Albert Einstein College of Medicine, priority 2021, published 2024)

Assays:
MEFs [1] = assay: RNA-seq gene expression; assay type: cell-based, mouse
Description: RNA-seq. Sequencing results were demultiplexed and converted to FASTQ format using Illumina bcl2fastq software. The sequencing reads were adapter and quality trimmed with Trimmomatic and then aligned to the mouse genome (build mm10/GRCm38) using the splice-aware STAR aligner. The featureCounts program was utilized to generate counts for each gene based on how many aligned reads overlap its exons. These counts were then normalized and used to test for differential expression using negative binomial generalized linear models implemented by the DESeq2 R package.

MEFs [2] = assay: Metabolomics (TCA cycle carboxylic acids, NAD, NADH); assay type: cell-based, mouse; settings: UPLC-MRM/MS
Description: Metabolomics. […] Cells were harvested using a cell scraper and centrifuged at 1200 rpm in 4° C. for 3 min. Each cell pellet sample was suspended into 250 to 700 μL of 80% aqueous methanol in an Eppendorf tube. The samples were vortex mixed for 15 s and sonicated in an ice-water bath for 5 min, followed by centrifugal clarification at 15,000 rpm and 5° C. in an Eppendorf […] centrifuge. The clear supernatants were collected. A standard stock solution of TCA cycle carboxylic acids, NAD and NADH was prepared in 80% methanol as S1. This standard solution S1 was serially diluted 1 to 4 (v/v) with the same solvent to make standard solutions S2 to S10. 20 μL of each standard solution and an aliquot of the clear supernatant from each cell was mixed with 20 μL of an internal standard solution containing 9 ^13C- or deuterium labeled analogues of the TCA cycle carboxylic acids (except isocitric acid), 20 μL of 200 mM 3-NPH solution and 20 μL of 150 mM of EDC solution. The mixtures were allowed to react at 30° C. for 30 min. After reaction, 120 μL of water was added to each solution. 10 μL of the resultant solutions was injected into a C18 UPLC column to quantitate the TCA cycle carboxylic acids by UPLC-MRM/MS with (-) ion detection, according to the procedure we described in a publication.

MEFs [3] = assay: Caspase-3/7 activation assay; assay type: cell-based, mouse
Description: Caspase-3/7 activation assay. Cells (5×10^3 cells/well) were seeded in a 96-well white plate and treated with MASM7, MFI8. Caspase 3/7 activation was measured after 6 hr by addition of the Caspase-Glo 3/7 reagent according to the manufacturer's protocol (Promega). Luminescence was detected by a F200 PRO microplate reader (TECAN). Caspase assays were performed in at least triplicate and the data normalized to vehicle-treated control wells. Dilutions of MASM7 or MFI8 were performed using a TECAN D300e Digital Dispenser from 10 mM stocks.

MEFs [4] = assay: Cytochrome C release; assay type: cell-based, mouse; settings: 6 hrs treatment, cytosolic and mitochondrial fractions
Description: Cytochrome C release. MEFs were seeded in a 10 cm^2 dish and grown at ˜70% confluence. Following 6 hrs treatment with MFI8, cells were harvested and lysed in digitonin buffer [20 mM Hepes, pH 7.2, 10 mM KCl, 5 mM MgCl2, Im MEDTA, 1 mM EGTA, 250 mM sucrose, 0.025% Digitonin (from 5% w/v stock) and complete protease inhibitors (Roche Applied Science)] on ice for 10 min. Then, supernatants were isolated by centrifugation at 15,000×g for 10 min. Mitochondrial pellets solubilized in 1% Triton X-100/PBS for 1 hr at 4° C. Solubilized Pellets were subjected to a 14,000×rpm spin for 10 min. Samples were prepared for western blot analysis and separated by 4-12% NuPage (Life Technologies).

U2OS cells [5] = assay: Cell death with BV6 in U2OS cells; assay type: cell-based
Description: Cell death assay. Cells (2×10^5 cells/well) were seeded in a 6-well plate and treated with the indicated drugs for 6 hours. Cells were dissociated using Accutase (Thermo Fisher; Cat. #00-4555-56) in order to avoid accidental exposure of phosphatidylserine on the outer plasma membrane. Cell death was evaluated with Dead Cell Apoptosis Kit with Annexin V Alexa Fluor™ 488 & Propidium Iodide (Thermo Fisher; Cat. #V13241) according to manufacturer's protocol. Data was acquired by BD LSRII flow cytometer system using BD FACSDiva software. Data was analyzed by FlowJo (BD).

cells = assay: Cell viability assay (CellTiter-Glo); assay type: cell-based; settings: 72 hours
Description: Cell viability assay. […] Cell viability was assayed after 72 hrs by addition of CellTiter-Glo reagent according to the manufacturer's protocol (Promega). Luminescence was measured using a […] microplate reader (TECAN). Viability assays were performed in at least triplicate and the data normalized to vehicle-treated control wells.

A375 cells = assay: Cell viability, melanoma cells; assay type: cell-based; settings: A375, 72 hr, Cell titer Glo
Description: (§1) Cell titer Glo was used to measure viability. Cells were treated with MFI8 for 72 hr (n=3, mean±SD).
(§2) Cell viability assay. Cells (5×10^3 cells/well) were seeded in a 96-well white plate and treated with serial dilutions of MASM7 or MFI8. Cell viability was assayed after 72 hrs by addition of CellTiter-Glo reagent according to the manufacturer's protocol (Promega). Luminescence was measured using a F200 PRO microplate reader (TECAN). Viability assays were performed in at least triplicate and the data normalized to vehicle-treated control wells. Dilutions of MASM7 or MFI8 were performed using a TECAN D300e Digital Dispenser from 10 mM stocks.

SKML-30 cells = assay: Cell viability, melanoma cells; assay type: cell-based; settings: SKML-30, 72 hr, Cell titer Glo
Description: as §1, §2

BXPC3 cells = assay: Cell viability, pancreatic cancer cells; assay type: cell-based; settings: BXPC3, 72 hr, Cell titer Glo
Description: as §1, §2

U2OS cells [6] = assay: DNA damage, yH2AX immunofluorescence in U2OS; assay type: cell-based
Description: Immunofluorescent analysis and microscopy. Cells were treated with MASM7, MFI8 and or Q-VD-OPh at ˜70% confluence for 6 h. After treatments, cells were washed with PBS and fixed with 4% PFA for 15 min. Then cells were permeabilized with 0.1% Triton X-100 in PBS for 10 min. Cells were blocked with 5% BSA in PBS-T and incubated overnight with primary antibodies as indicated; yH2AX (Sigma; 05-636, 1:100 dilution). After incubation with primary antibodies, cells were washed with PBS and incubated with the appropriate mouse secondary antibody (ThermoFisher Scientific; A-11001) in the blocking solution. After PBS washes, coverslips were dipped in water and mounted on glass slides using Vectashield containing DAPI (Vector laboratories). […] Data were analyzed with ImageJ.

U2OS cells [7] = assay: Mitochondrial fusion in U2OS cells

Question: With `Cc1cccc(NC(C)c2cc(Cl)ccc2O)c1C` (stereo not drawn) [MFI8, 4-Chloro-2-(1-((2,3-dimethylphenyl)amino)ethyl)phenol] as the compound, how does the “expression of genes involved in DNA damage response” value (MEFs [1]; MEFs) read?
Answer: up-regulated several genes that are involved in DNA damage response

Question: And the “gene expression of subunits of the respiratory complexes” value (MEFs [1]; RNA-seq)?
Answer: reduced the gene expression of several nuclear-encoded subunits of the respiratory complexes

Question: What about the “metabolites of the TCA cycle” value (MEFs [2]) of the same compound?
Answer: markedly reduced several metabolites such as malate, oxaloacetate, and α-ketoglutarate

Question: And the caspase-3/7 activity (MEFs [3]; 6 hr, Caspase-Glo 3/7)?
Answer: concentration-responsively increased caspase-3/7 activity

Question: What about the “caspase 3/7 activity” value (MEFs [3]; deletion of APAF-1) of the same compound?
Answer: detrimental for the capacity of MFI8 to increase caspase 3/7 activity

Question: And the caspase-3/7 activity (MEFs [3]; deletion of MFN1/MFN2)?
Answer: impaired the capacity of MFI8 to increase caspase-3/7 activity

Question: What about the “cytochrome c release to the cytosol” value (MEFs [4]) of the same compound?
Answer: cytochrome c was released to the cytosol, albeit at modest levels

Question: And the “cell death in combination with BV6” value (U2OS cells [5])?
Answer: synergistically induce cell death

Question: And the cellular viability (cells)?
Answer: neither MFI8 nor MASM7 decreased cellular viability

Question: What about the viability (A375 cells) of the same compound?
Answer: concentration responsively reduces viability

Question: What about the viability (SKML-30 cells) of the same compound?
Answer: concentration responsively reduces viability

Question: And the viability (BXPC3 cells)?
Answer: concentration responsively reduces viability

Question: What about the “DNA damage (yH2AX)” value (U2OS cells [6]; U2OS cells) of the same compound?
Answer: induced DNA damage in U2OS cells

Question: And the “DNA damage (yH2AX)” value (U2OS cells [6]; U2OS, co-treatment with pan-caspase inhibitor Q-VD-OPh)?
Answer: abolished the capacity of the latter to induce DNA damage

Question: And the mitochondrial fusion (U2OS cells [7])?
Answer: inhibited mitochondrial fusion
